Patent US6737425B1, “N,N-substituted cyclic amine derivatives” (Eisai Co., Ltd., priority 1998, dated 2004)
Structures can show the parent of a compound that is named as a salt.

Test system: voltage-dependent calcium channels (cerebral cortex synaptosome)
Assay: Measurement of voltage-dependent calcium channel activity by the use of a fluorescent pigment (fura 2)
Type: cell-based
Settings: rat cerebral cortex synaptosome, fura 2, KCl stimulation, compound incubated 10 minutes
Description: Measurement of Voltage-dependent Calcium Channel Activity by the use of a Fluorescent Pigment (fura 2)
Cerebral cortexes were removed from cut rat brains and disrupted roughly with scissors. These were introduced into a homogenizer, homogenized in 0.3 M saccharose and centrifuged at 4° C. (1,500 g×10 min). The resulting supernatant was further centrifuged at 4° C. (10,000 g×20 min). The resulting precipitates were suspended in 0.3 M saccharose. The suspension was layered on 0.8 M saccharose and centrifuged (10,000 g×30 min.).
4 μM fura 2/AM (Dojin Ltd.) was suspended in solution A to prepare a loading solution. To the synaptosome solution prepared in the method described above was added an equal volume of the loading solution, and the mixture was incubated for 40 minutes at room temperature.
As comparative and control compound, verapamil hydrochloride was used.

SMILES	IC50 [µM]	IC50 (Hydrochloride) [µM]
CC(C)c1ccccc1N(C)CCN1CCN(CCCC(C#N)(c2ccccc2)C(C)C)CC1 (centres unmarked) [Example 93, 1-[(4-Cyano-5-methyl-4-phenyl)hexyl]-4-{2-[N-methyl(2-Isopropylanilino)ethyl]}piperazine]	2.4	–
COc1cccc(OCCN2CCN(CCCC(C#N)(c3ccccc3)C(C)C)CC2)c1OC (centres unmarked) [Example 40, 1-[(4-Cyano-5-methyl-4-phenyl)hexyl]-4-[2-(2,3-dimethoxyphenoxy)ethyl]piperazine]	10	–
COc1ccc(CCN(C)CCCC(C#N)(c2ccc(OC)c(OC)c2)C(C)C)cc1OC (centres unmarked) [Control, verapamil hydrochloride, reference compound]	> 16	–
CC(C)C(C#N)(CCCN1CCN(CCOc2ccc(F)cc2)CC1)c1ccc([N+](=O)[O-])cc1 (centres unmarked) [Example 16, 1-[4-Cyano-5-methyl-4-(4-nitrophenyl)hexyl]-4-[2-(4-fluorophenoxy)ethyl]piperazine]	4.8	–
CC(C)C(C#N)(CCCN1CCN(CCOc2cccc3ncccc23)CC1)c1ccccc1 (centres unmarked) [Example 101, 1-[(4-Cyano-5-methyl-4-phenyl)hexyl]-4-[2-(5-quinolyloxy)ethyl]piperazine]	9.2	–
CCCCC(C#N)(CCCN1CCN(CCOc2ccc(F)cc2)CC1)c1ccccc1 (centres unmarked) [Example 29, 1-[(4-Cyano-4-phenyl)octyl]-4-[2-(4-fluorophenoxy)ethyl]piperazine]	4	–
CC(C)C(C#N)(CCCN1CCN(CCOc2cccc3cnccc23)CC1)c1ccccc1 (centres unmarked) [Example 96, 1-[(4-Cyano-5-methyl-4-phenyl)hexyl]-4-[2-(5-isoquinolyloxy)ethyl]piperazine]	5.4	–
N#CC(CCCN1CCN(CCOc2ccc(F)cc2)CC1)(c1ccccc1)C1CCCCC1 (centres unmarked) [Example 38]	4	–
CC(C)C(C#N)(CCCN1CCN(CCOc2ccc3ncccc3c2)CC1)c1ccccc1 (centres unmarked) [Example 95, 1-[(4-Cyano-5-methyl-4-phenyl)hexyl]-4-[2-(6-quinolyloxy)ethyl]piperazine]	11	–
CC(C)C(C#N)(CCCN1CCN(CCOc2ccc(-c3cccnc3)cc2)CC1)c1ccccc1 (centres unmarked) [Example 106, 1-[(4-Cyano-5-methyl-4-phenyl)hexyl]-4-{2-[4-(3-pyridyl)phenoxy]ethyl}piperazine]	7	–
CC(C)C(C#N)(CCCN1CCN(CCOc2cccc(F)c2)CC1)c1cccs1 (centres unmarked) [Example 116, 1-[4-Cyano-5-methyl-4-(2-thienyl)hexyl]-4-[2-(3-fluorophenoxy)ethyl]piperazine]	5.5	–
CC(C)C(C#N)(CCCN1CCN(CCOc2ccc(F)cc2)CC1)c1ccc(C#N)s1 (centres unmarked) [Example 114, 1-[4-Cyano-5-methyl-4-(2-cyano-5-thienyl)hexyl]-4-[2-(4-fluorophenoxy)ethyl]piperazine]	6.8	–
CC(C)C(C#N)(CCCN1CCN(CCOc2ccc(F)cc2)CC1)c1ccc(N(C)C)cc1 (centres unmarked) [Example 19, 1-[4-Cyano-5-methyl-4-(4-dimethylaminophenyl)hexyl]-4-[2-(4-fluorophenoxy)ethyl]piperazine]	6	–
CC(C)C(C#N)(CCCN1CCN(CCOc2cccc(/C=C/C#N)c2)CC1)c1ccccc1 (centres unmarked) [Example 121, 1-[(4-Cyano-5-methyl-4-phenyl)hexyl]-4-{2-[3-(2-cyanovinyl)phenoxy]ethyl}piperazine]	6.8	–
CC(C)C(C#N)(CCCN1CCN(CCOc2cccc(-c3ccsc3)c2)CC1)c1ccccc1 (centres unmarked) [Example 117, 1-[(4-Cyano-5-methyl-4-phenyl)hexyl]-4-{2-[3-(3-thienyl)phenoxy]ethyl}piperazine]	3.2	–
CC(C)N(CCN1CCN(CCCC(C#N)(c2ccccc2)C(C)C)CC1)c1ccccc1 (centres unmarked) [Example 89, 1-[(4-Cyano-5-methyl-4-phenyl)hexyl]-4-[2-(N-isopropylanilino)ethyl]piperazine]	2.7	–
CCCC(CCC(C#N)(c1ccccc1)C(C)C)N1CCN(CCOc2ccc(F)cc2)CC1 (centres unmarked) [Example 98, 1-{[4-(7-Cyano-8-methyl-7-phenyl)nonyl]}-4-[2-(4-fluorophenoxy)ethyl]piperazine]	> 16	–
CC(C)C(C#N)(CCCN1CCN(CCOc2ccc(F)cc2OCCO)CC1)c1ccccc1 (centres unmarked) [Example 87, 1-[(4-Cyano-5-methyl-4-phenyl)hexyl]-4-[2-(2-hydroxyethoxy-4-fluorophenoxy)ethyl]piperazine]	> 16	–
CC(C)C(C#N)(CCC(=O)N1CCN(CCOc2ccc(F)cc2)CC1)c1ccccc1 (centres unmarked) [Example 122, 1-[(4-Cyano-5-methyl-4-phenyl)hexanoyl]-4-[2-(4-fluorophenoxy)ethyl]piperazine]	12	–
CC(C)C(C#N)(CCCN1CCN(CCOc2ccc(-n3ccnc3)cc2)CC1)c1ccccc1 (centres unmarked) [Example 111, 1-[(4-Cyano-5-methyl-4-phenyl)hexyl]-4-{2-[4-(imidazol-1-yl)phenoxy]ethyl}piperazine]	> 16	–
CC(C)C(C#N)(CCCN1CCN(CCOc2ccc(F)cc2)CC1)c1ccc(O)cc1 (centres unmarked) [Example 83, 1-[4-Cyano-5-methyl-4-(4-hydroxyphenyl)hexyl]-4-[2-(4-fluorophenoxy)ethyl]piperazine]	13	–
CC(C)C(C#N)(CCCN1CCN(CCOc2cccc(F)c2)CC1)c1ccc(C#N)s1 (centres unmarked) [Example 115, 1-[4-Cyano-5-methyl-4-(2-cyano-5-thienyl)hexyl]-4-[2-(3-fluorophenoxy)ethyl]piperazine]	5.8	–
C=C(C)C(C#N)(CCCN1CCN(CCOc2ccc(F)cc2)CC1)c1ccccc1 (centres unmarked) [Example 82, 1-[5-(4-Cyano-5-methyl-4-phenyl)hexenyl]-4-[2-(4-fluorophenoxyl)ethyl]piperazine]	5	–

More lines, now with the values ahead:

IC50 [µM]	IC50 (Hydrochloride) [µM]	SMILES
6.2	–	CC(C)C(C#N)(CCCN1CCN(CCOc2cccc(F)c2)CC1)c1ccccc1 (centres unmarked) [Example 32, 1-[(4-Cyano-5-methyl-4-phenyl)hexyl]-4-[2-(3-fluorophenoxy)ethyl]piperazine]
7.5	–	CC(C)C(C#N)(CCCN1CCN(CCNc2ccc(F)cc2)CC1)c1ccccc1 (centres unmarked) [Example 51, 1-[(4-Cyano-5-methyl-4-phenyl)hexyl]-4-[2-(4-fluorophenylamino)ethyl]piperazine]
> 16	–	CC(C)C(C#N)(CCCN1CCN(CC(=O)Nc2ccc(F)cc2)CC1)c1ccccc1 (centres unmarked) [Example 65, 1-[(4-Cyano-5-methyl-4-phenyl)hexyl]-4-[N-(4-fluorophenyl)carbamoylmethyl]piperazine]
> 16	–	CC(C)C(C#N)(CCCN1CCN(CCOc2ccccn2)CC1)c1ccccc1 (centres unmarked) [Example 71, 1-[(4-Cyano-5-methyl-4-phenyl)hexyl]-4-[2-(2-pyridyloxy)ethyl]piperazine]
3.4	–	CC(C)C(C#N)(CCCN1CCN(CCCCCOc2ccc(F)cc2)CC1)c1ccccc1 (centres unmarked) [Example 33]
5.7	–	CC(C)C(C#N)(CCN1CCCN(CCOc2ccc(F)cc2)CC1)c1ccccc1 (centres unmarked) [Example 4, 1-[(3-Cyano-4-methyl-3-phenyl)pentyl]-4-[2-(4-fluorophenoxy)ethyl]homopiperazine]
13	–	CC(C)C(C#N)(CCCN1CCN(CCOc2ccc(N(C)C)cc2)CC1)c1ccccc1 (centres unmarked) [Example 43, 1-[(4-Cyano-5-methyl-4-phenyl)hexyl]-4-[2-(4-dimethylaminophenoxy)ethyl]piperazine]
9.6	–	COc1ccc(OCCN2CCN(CCCC(C#N)(c3ccccc3)C(C)C)CC2)cc1 (centres unmarked) [Example 39, 1-[(4-Cyano-5-methyl-4-phenyl)hexyl]-4-[2-(4-methoxyphenoxy)ethyl]piperazine]
4	–	CC(C)C(C#N)(CCCN1CCN(CCCOc2ccc(F)cc2)CC1)c1ccccc1 (centres unmarked) [Example 2, 1-[(4-Cyano-5-methyl-4-phenyl)hexyl]-4-[3-(4-fluorophenoxy)propyl]piperazine]
9.3	–	CC(C)C(C#N)(CCCN1CCN(CCOc2ccccc2F)CC1)c1ccccc1 (centres unmarked) [Example 31]
16	–	CC(C)C(C#N)(CCCN1CCN(CCOc2ccccc2C#N)CC1)c1ccccc1 (centres unmarked) [Example 46, 1-[(4-Cyano-5-methyl-4-phenyl)hexyl]-4-[2-(2-cyanophenoxy)ethyl]piperazine]
4.9	–	COc1cc(F)ccc1OCCN1CCN(CCCC(C#N)(c2ccccc2)C(C)C)CC1 (centres unmarked) [Example 88, 1-[(4-Cyano-5-methyl-4-phenyl)hexyl]-4-[2-(2-methoxy-4-fluorophenoxy)ethyl]piperazine]
7.7	–	CC(C)C(C#N)(CCCN1CCN(CCOc2cccc(C#N)c2)CC1)c1ccccc1 (centres unmarked) [Example 119, 1-[(4-Cyano-5-methyl-4-phenyl)hexyl]-4-[2-(3-cyanophenoxy)ethyl]piperazine]
4.8	–	CC(C)C(C#N)(CCCN1CCN(CCSc2ccc(F)cc2)CC1)c1ccccc1 (centres unmarked) [Example 49, 1-[(4-Cyano-5-methyl-4-phenyl)hexyl]-4-[2-(4-fluorophenylthio)ethyl]piperazine]
4.6	–	CSc1ccc(OCCN2CCN(CCCC(C#N)(c3ccccc3)C(C)C)CC2)cc1 (centres unmarked) [Example 45, 1-[(4-Cyano-5-methyl-4-phenyl)hexyl]-4-[2-(4-methylthiophenoxy)ethyl]piperazine]
–	15	CC(C)C(C#N)(CCN1CCN(CCOc2ccc(F)cc2)CC1)c1ccccc1 (single isomer, unassigned; (+)) [Example 78, (+)-1-[(3-Cyano-4-methyl-3-phenyl)pentyl]-4-[2-(4-fluorophenoxyl)ethyl]piperazine Hydrochloride]
–	7.5	CC(C)C(C#N)(CCN1CCN(CCOc2ccc(F)cc2)CC1)c1ccccc1 (single isomer, unassigned; (-)) [Example 77, (−)-1-[(3-Cyano-4-methyl-3-phenyl)pentyl]-4-[2-(4-fluorophenoxyl)ethyl]piperazine Hydrochloride]
3.5	–	CC(C)C(C#N)(CCCN1CCN(CCOc2ccccc2Br)CC1)c1ccccc1 (centres unmarked) [Example 110, 1-[(4-Cyano-5-methyl-4-phenyl)hexyl]-4-[2-(2-bromophenoxy)ethyl]piperazine]
